Assay results taken from US8796268B2, “Heteroaryls and uses thereof” (Millennium Pharmaceuticals, Inc., priority 2010, dated 2014).
Like-named read-outs stand apart in the source and are kept apart here.

Columns and labels:
Human PI3K alpha = molecular target: T1, Human PI3K alpha (Homo sapiens, UniProt P42336); assay: Human PI3K alpha enzyme assay (HTRF); assay type: biochemical; settings: for IC50: read-out: PI3Kalpha IC50
T1 construct: His (N); host or cells: SF9 insect cells (baculovirus)
Source text: (§1) The catalytic subunits of PI3Ks are cloned into either pDEST8(p110 alpha) or pDEST10(p110beta, p110delta, and p110gamma) as N-terminal His tagged fusion proteins using the Gateway system (Invitrogen, catalog#11804-010 for pDEST8 and 11806-015 for pDEST10). The sequences are verified before recombinant protein expression using the Baculovirus Expression System with Gateway® Technology. The accession numbers for the subunits are as follows: • p110 alpha (GB:U79143) • p110beta (GB: S67334) • p110delta (GB: U86453) • p110gamma (GB: X83368) • The regulatory subunits of PI3Ks are cloned into pDEST8 as un-tagged protein using the Gateway system (Catalog#11804-010). The sequences are verified before recombinant protein expression using the Baculovirus Expression System with Gateway® Technology. The accession numbers for the subunits are as following: • p85 alpha (GB: BC030815) • p101(GB: AB028925) • VPS34 (accession number GB:BC033004) is cloned into pDEST20—Thombin as N-terminal GST tagged fusion proteins using the Gateway system (Invitrogen, catalog#11804-013). The sequences are verified before recombinant protein expression using the Baculovirus Expression System with Gateway® Technology.
(§2) For expression of the p110 complexes, the p85 (MOI of 4) is co-infected with p110 alpha, beta, and delta respectively (1MOI) in SF9 cells and harvested at 60 hours post co-infection. P110 gamma was infected at 1 MOI and harvested at 60 hours post infection.
(§3) For purification, PI3Ks are purified by Ni-NTA Agarose (Qiagen #30250) followed by Mono Q 10/100 GL (Ge Healthcare #17-5167-01). VPS34 is purified by Glutathione Sepharose 4 Fast Flow (GE Healthcare #17-5132-03) followed by HiTrap Q (GE Healthcare #17-1153-01).
1) Human PI3K alpha enzyme assay method
(§4) 0.5 uL compounds in DMSO are added to wells of a 384 well microtitre plate (Corning 3575). At room temperature: 10 ul PI3K reaction buffer (50 mM Hepes, 5 mM DTT, 150 mM NaCl, 10 mM beta-glycerophosphate, 10 mM MgCl2, 0.25 mM sodium cholate and 0.001% CHAPS, pH 7.00) containing ATP (25 uM, Promega) is added followed immediately by 10 ul PI3K reaction buffer containing di-C8 P1(4,5)P2 (3.5 uM, CellSignals) and PI3Kalpha (0.4875 nM, Millennium Protein Sciences Group) and the mixture is incubated with shaking at room temperature for 30 minutes. Then 5 ul PI3K stop mix (50 mM Hepes, 5 mM DTT, 150 mM NaCl, 0.01% Tween-20, 15 mM EDTA and 25 nM biotin-PI(3,4,5)P3 (Echelon) is added to quench the reaction followed immediately by addition of 5 ul HTRF detection mix (50 mM Hepes, 5 mM DTT, 150 mM NaCl, 0.01% Tween-20, 40 mM KF, 1.0 nM GST:GRP-1 PH domain (Millennium Protein Sciences Group), 15 nM Streptavidin-XL (CisBio) and 0.375 nM anti-GST Eu++ antibody (CisBio) at pH 7.00). The plates are then incubated for 1 hour at room temperature with shaking and then read on a BMG PheraStar Plus reader.
(§5) For the assay methods described above, test compound percent inhibition, at various concentrations, is calculated relative to control (DMSO and EDTA) treated samples. Compound concentration versus percent inhibition curves are fitted to generate IC50 values. One skilled in the art will appreciate that the values generated either as percentage inhibition at a single concentration or IC50 values are subject to experimental variation.

Human PI3K beta = molecular target: T2, Human PI3K beta (Homo sapiens, UniProt P42338); assay: Human PI3K beta enzyme assay (HTRF); assay type: biochemical; settings: for IC50: read-out: PI3 Kbeta IC50
T2 construct: His (N); host or cells: SF9 insect cells (baculovirus)
T2 sequence (P42338 whole entry): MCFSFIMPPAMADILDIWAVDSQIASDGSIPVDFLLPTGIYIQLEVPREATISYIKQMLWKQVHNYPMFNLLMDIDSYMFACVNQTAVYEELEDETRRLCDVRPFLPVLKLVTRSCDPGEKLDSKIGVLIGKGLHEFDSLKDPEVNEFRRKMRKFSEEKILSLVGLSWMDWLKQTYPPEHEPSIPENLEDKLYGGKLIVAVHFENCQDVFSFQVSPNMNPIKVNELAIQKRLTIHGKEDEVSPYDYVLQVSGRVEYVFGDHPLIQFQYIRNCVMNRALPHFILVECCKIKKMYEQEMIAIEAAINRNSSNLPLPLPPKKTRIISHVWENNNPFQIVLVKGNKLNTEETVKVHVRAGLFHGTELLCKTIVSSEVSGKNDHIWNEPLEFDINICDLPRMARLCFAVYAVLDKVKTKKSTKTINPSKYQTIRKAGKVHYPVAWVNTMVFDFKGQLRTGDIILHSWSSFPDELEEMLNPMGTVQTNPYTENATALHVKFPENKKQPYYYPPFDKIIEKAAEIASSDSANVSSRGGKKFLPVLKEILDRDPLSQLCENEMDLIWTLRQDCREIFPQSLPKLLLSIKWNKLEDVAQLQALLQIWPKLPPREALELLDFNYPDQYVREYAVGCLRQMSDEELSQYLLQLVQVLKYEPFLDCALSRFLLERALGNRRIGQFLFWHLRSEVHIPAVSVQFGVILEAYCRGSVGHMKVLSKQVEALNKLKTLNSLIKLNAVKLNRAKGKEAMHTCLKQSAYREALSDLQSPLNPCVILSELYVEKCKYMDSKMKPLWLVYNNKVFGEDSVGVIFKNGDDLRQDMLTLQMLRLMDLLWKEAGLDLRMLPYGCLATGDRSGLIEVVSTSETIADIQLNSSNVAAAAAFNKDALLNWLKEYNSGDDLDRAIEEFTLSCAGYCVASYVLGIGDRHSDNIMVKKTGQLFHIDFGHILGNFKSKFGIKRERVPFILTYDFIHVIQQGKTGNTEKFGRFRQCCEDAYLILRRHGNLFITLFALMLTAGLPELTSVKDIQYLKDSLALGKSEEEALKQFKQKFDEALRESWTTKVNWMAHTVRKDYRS
T2 sequence (P27986 whole entry partner): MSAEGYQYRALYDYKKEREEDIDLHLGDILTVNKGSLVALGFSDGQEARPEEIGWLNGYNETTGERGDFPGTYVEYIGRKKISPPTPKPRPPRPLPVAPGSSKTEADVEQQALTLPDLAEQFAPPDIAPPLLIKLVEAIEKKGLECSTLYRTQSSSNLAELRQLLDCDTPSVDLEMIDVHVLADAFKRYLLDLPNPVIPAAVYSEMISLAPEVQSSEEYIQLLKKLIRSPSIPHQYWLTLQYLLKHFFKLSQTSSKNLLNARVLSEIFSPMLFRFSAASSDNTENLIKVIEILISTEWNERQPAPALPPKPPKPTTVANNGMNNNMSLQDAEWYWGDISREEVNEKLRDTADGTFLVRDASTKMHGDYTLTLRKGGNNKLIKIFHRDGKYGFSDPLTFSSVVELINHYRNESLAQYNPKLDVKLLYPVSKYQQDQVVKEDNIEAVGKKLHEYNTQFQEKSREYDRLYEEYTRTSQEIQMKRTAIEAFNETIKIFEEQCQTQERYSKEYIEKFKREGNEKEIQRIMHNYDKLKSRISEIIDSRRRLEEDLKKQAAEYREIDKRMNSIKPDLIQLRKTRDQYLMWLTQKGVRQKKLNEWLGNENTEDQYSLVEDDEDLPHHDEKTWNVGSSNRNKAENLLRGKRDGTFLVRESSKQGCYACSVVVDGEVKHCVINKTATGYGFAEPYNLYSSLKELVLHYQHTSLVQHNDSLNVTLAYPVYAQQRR
Source text: as §1, §2, §3, §4
2) Human PI3K beta, delta and gamma isoforms are tested using the procedure described for PI3K alpha above but with the following changes: PI3K beta (5.25 nM), PI3K delta (0.75 nM) and PI3K gamma (5 nM). All isoforms supplied by Millennium Protein Science Group.
as §5

[1] = at a 1.1 μM concentration, read-out: PI3Kα Percent Inhibition
[2] = at a 1.1 μM concentration, read-out: PI3β Percent Inhibition

T1 sequence (P42336 whole entry): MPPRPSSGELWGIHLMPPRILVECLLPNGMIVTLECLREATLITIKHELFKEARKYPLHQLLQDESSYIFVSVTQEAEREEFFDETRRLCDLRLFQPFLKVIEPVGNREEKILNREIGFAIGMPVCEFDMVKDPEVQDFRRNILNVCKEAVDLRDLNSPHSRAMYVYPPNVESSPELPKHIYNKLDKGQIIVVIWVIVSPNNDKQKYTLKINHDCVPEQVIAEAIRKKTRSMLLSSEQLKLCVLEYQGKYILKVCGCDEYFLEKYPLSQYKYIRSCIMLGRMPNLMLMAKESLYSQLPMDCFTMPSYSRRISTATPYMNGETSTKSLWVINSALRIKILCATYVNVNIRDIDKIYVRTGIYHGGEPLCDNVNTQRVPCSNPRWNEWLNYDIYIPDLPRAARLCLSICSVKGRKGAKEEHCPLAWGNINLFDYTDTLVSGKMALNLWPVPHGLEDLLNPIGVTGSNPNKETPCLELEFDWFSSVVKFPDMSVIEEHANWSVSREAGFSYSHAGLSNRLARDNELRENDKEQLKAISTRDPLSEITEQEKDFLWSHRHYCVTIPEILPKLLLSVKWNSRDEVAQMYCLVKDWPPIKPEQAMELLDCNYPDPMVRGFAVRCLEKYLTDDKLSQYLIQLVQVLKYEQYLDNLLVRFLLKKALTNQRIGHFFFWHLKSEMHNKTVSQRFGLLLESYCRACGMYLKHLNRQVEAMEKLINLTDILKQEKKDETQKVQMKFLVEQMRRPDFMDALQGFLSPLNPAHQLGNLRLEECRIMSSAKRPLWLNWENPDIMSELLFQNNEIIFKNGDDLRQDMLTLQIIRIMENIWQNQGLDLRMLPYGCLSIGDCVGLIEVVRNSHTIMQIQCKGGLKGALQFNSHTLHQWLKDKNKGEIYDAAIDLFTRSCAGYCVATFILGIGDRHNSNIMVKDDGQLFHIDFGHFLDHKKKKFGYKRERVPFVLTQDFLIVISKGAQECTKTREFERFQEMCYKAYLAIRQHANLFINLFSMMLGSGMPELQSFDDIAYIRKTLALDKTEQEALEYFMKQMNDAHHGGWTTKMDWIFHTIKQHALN
T1 sequence (P27986 whole entry partner): as the sequence (P27986 whole entry partner) above

| IC50 (Human PI3K alpha) | IC50 (Human PI3K beta) | Compound | also measured |
| --- | --- | --- | --- |
| 100 to 1000 nM | 100 to 1000 nM | OC(c1ccc(Cl)cc1)c1cc(-c2ccnc3sccc23)sc1-c1nnc[nH]1 (stereo not drawn) [Compound 57] | – |
| > 1000 nM | 100 to 1000 nM | CN1CCc2cc(Cl)ccc2C1c1cc(-c2ccncc2)sc1-c1ccn[nH]1 (stereo not drawn) [Compound 58, 6-Chloro-2-methyl-1-[2-(1H-pyrazol-5-yl)-5-pyridin-4-yl-3-thienyl]-1,2,3,4-tetrahydroisoquinoline] | – |
| > 1000 nM | < 100 nM | O[C@H](c1ccc(Cl)cc1)c1cc(-c2ccnnc2)sc1-c1nnc[nH]1 [Compound 59] | – |
| > 1000 nM | 100 to 1000 nM | CC(=O)Nc1cc(-c2nc(C(O)c3ccc(Cl)cc3)c(-c3ncc[nH]3)s2)ccn1 (stereo not drawn) [Compound 60, N-{4-[4-[(4-chlorophenyl)(hydroxy)methyl]-5-(1H-imidazol-2-yl)-1,3-thiazol-2-yl]pyridin-2-yl}acetamide] | – |
| 100 to 1000 nM | 100 to 1000 nM | Cc1nn2ccc(CN3CCC(N)CC3)cc2c1-c1nc(Cc2ccc(Cl)cc2)c(-c2nnc[nH]2)s1 [Compound 61] | – |
| > 1000 nM | 100 to 1000 nM | CNc1cc(-c2cc(C(O)c3ccc(Cl)cc3)c(-c3nnc[nH]3)s2)ccn1 (stereo not drawn) [Compound 62] | – |
| > 1000 nM | > 1000 nM | CNc1cc(-c2nc(Cc3ccc(Cl)cc3)c(-c3nnc[nH]3)s2)ccn1 [Compound 63] | – |
| 100 to 1000 nM | 100 to 1000 nM | O=C1CCc2c(-c3cc(C(O)c4ccc(Cl)cc4)c(-c4nnc[nH]4)s3)ccnc2N1 (stereo not drawn) [Compound 64] | – |
| > 1000 nM | < 100 nM | CN(C)[C@@H](c1ccc(Cl)cc1)c1cc(-c2ccncc2)sc1-c1nnc[nH]1 [Compound 65] | – |
| > 1000 nM | < 100 nM | Clc1ccc(Cc2nc(-c3ccncc3)sc2-c2cnc[nH]2)cc1 [Compound 66, 4-(4-chlorobenzyl)-5-(1H-imidazol-5-yl)-2-(pyridin-4-yl)thiazole] | – |
| 100 to 1000 nM | > 1000 nM | CC(=O)Nc1cc(-c2nc(Cc3ccccc3Cl)c(-c3ncc[nH]3)s2)ccn1 [Compound 67] | – |
| > 1000 nM | 100 to 1000 nM | OC(c1ccc(Cl)cc1)c1cc(-c2ncncc2F)sc1-c1nnc[nH]1 (stereo not drawn) [Compound 68] | – |
| 100 to 1000 nM | 100 to 1000 nM | CC(=O)Nc1cc(-c2sc(-c3nnc[nH]3)c(Cc3ccc(Cl)cc3)c2C#N)ccn1 [Compound 71, N-{4-[4-(4-chlorobenzyl)-3-cyano-5-(4H-1,2,4-triazol-3-yl)-2-thienyl]pyridin-2-yl}acetamide] | – |
| 100 to 1000 nM | 100 to 1000 nM | Cc1nn2ccc(CN3CCNCC3)cc2c1-c1nc(Cc2ccc(Cl)cc2)c(-c2nnc[nH]2)s1 [Compound 72, 3-[4-(4-chlorobenzyl)-5-(4H-1,2,4-triazol-3-yl)-1,3-thiazol-2-yl]-2-methyl-5-(piperazin-1-ylmethyl)pyrazolo[1,5-a]pyridine] | – |
| > 1000 nM | 100 to 1000 nM | CC(=O)Nc1cc(-c2nc(Cc3ccc(Cl)cc3)c(-c3ncc[nH]3)s2)ccn1 [Compound 73] | – |
| 100 to 1000 nM | 100 to 1000 nM | CC(=O)Nc1cc(-c2sc(C(=O)O)c(Cc3ccc(Cl)cc3)c2C#N)ccn1 [Compound 74] | – |
| > 1000 nM | < 100 nM | Nc1cc(-c2cc(C(O)c3ccc(Cl)cc3)c(-c3nnc[nH]3)s2)ccn1 (stereo not drawn) [Compound 75] | – |
| > 1000 nM | 100 to 1000 nM | Clc1ccc(Cc2nc(-c3ccncc3)sc2-c2nnc[nH]2)cc1 [Compound 76, 4-(4-chlorobenzyl)-2-(pyridin-4-yl)-5-(4H-1,2,4-triazol-3-yl)thiazole] | – |

| IC50 (Human PI3K alpha) | IC50 (Human PI3K beta) | Compound | also measured |
| --- | --- | --- | --- |
| > 1000 nM | < 100 nM | O[C@H](c1ccc(Cl)cc1)c1cc(-c2ccncc2)sc1-c1nnc[nH]1 [Compound 77] | – |
| > 1000 nM | > 1000 nM | Fc1cnccc1-c1nc(Cc2ccc(Cl)cc2)c(-c2nc[nH]n2)s1 [Compound 78] | – |
| > 1000 nM | 100 to 1000 nM | OC(c1ccc(Cl)cc1)c1cc(-c2ccnnc2)sc1-c1nnc[nH]1 (stereo not drawn) [Compound 79] | – |
| > 1000 nM | < 100 nM | O=C(O)c1sc(-c2ccncc2)nc1Cc1ccc(Cl)cc1 [Compound 80, 4-(4-chlorobenzyl)-2-(pyridin-4-yl)thiazole-5-carboxylic acid] | – |
| > 1000 nM | < 100 nM | N#Cc1cc(-c2cc(C(O)c3ccc(Cl)cc3)c(-c3nnc[nH]3)s2)ccn1 (stereo not drawn) [Compound 81, 4-(4-((4-chlorophenyl)(hydroxy)methyl)-5-(4H-1,2,4-triazol-3-yl)thiophen-2-yl)picolinonitrile] | – |
| 100 to 1000 nM | 100 to 1000 nM | Cc1nn2ccc(CNCCNC(=O)OC(C)(C)C)cc2c1-c1nc(Cc2ccc(Cl)cc2)c(-c2nnc[nH]2)s1 [Compound 82] | – |
| 100 to 1000 nM | 100 to 1000 nM | Cc1nn2ccc(CN(CCN)Cc3ccccc3)cc2c1-c1nc(Cc2ccc(Cl)cc2)c(-c2nnc[nH]2)s1 [Compound 83] | – |
| > 1000 nM | 100 to 1000 nM | O[C@@H](c1ccc(Cl)cc1)c1cc(-c2ccncc2)sc1-c1nnc[nH]1 [Compound 84] | – |
| > 1000 nM | < 100 nM | COc1ccc(C(O)c2cc(-c3ccncc3)sc2-c2nnc[nH]2)cc1 (stereo not drawn) [Compound 85, (4-methoxyphenyl)[5-pyridin-4-yl-2-(4H-1,2,4-triazol-3-yl)-3-thienyl]methanol] | – |
| 100 to 1000 nM | < 100 nM | CC(=O)Nc1cc(-c2cc(C(c3ccc(Cl)cc3)N(C)C)c(-c3nnc[nH]3)s2)ccn1 (stereo not drawn) [Compound 86] | – |
| > 1000 nM | < 100 nM | c1ccc2cc(Cc3nc(-c4ccncc4)sc3-c3nnc[nH]3)ccc2c1 [Compound 87] | – |
| > 1000 nM | < 100 nM | N#Cc1c(-c2ccnnc2)sc(-c2nnc[nH]2)c1Cc1ccc2ccccc2c1 [Compound 88, 4-(2-naphthylmethyl)-2-pyridazin-4-yl-5-(4H-1,2,4-triazol-3-yl)thiophene-3-carbonitrile] | – |
| > 1000 nM | 100 to 1000 nM | N#Cc1c(-c2ccnnc2)sc(-c2nnc[nH]2)c1Cc1ccc(Cl)cc1 [Compound 89] | – |
| 100 to 1000 nM | < 100 nM | CC(=O)Nc1cc(-c2cc(C(c3ccc(Cl)cc3)N3CCC3)c(-c3nnc[nH]3)s2)ccn1 (stereo not drawn) [Compound 90] | – |
| > 1000 nM | < 100 nM | O=c1ccnc(-c2sc(-c3ccncc3)nc2Cc2ccc(Cl)cc2)[nH]1 [Compound 92, 2-(4-(4-chlorobenzyl)-2-(pyridin-4-yl)thiazol-5-yl)pyrimidin-4(3H)-one] | – |
| – | – | O=C(O)c1sc(N2CCOCC2)nc1Cc1ccc(Cl)cc1F [Compound 101] | inhibition at 1.1 µM (Human PI3K alpha; [1]): 30%; inhibition at 1.1 µM (Human PI3K beta; [2]): 105% |
| – | – | O=C(O)c1sc(N2CCOCC2)nc1Cc1ccc2c(c1)OCCO2 [Compound 110, 4-(2,3-dihydro-1,4-benzodioxin-6-ylmethyl)-2-(morpholin-4-yl)-1,3-thiazole-5-carboxylic acid] | inhibition at 1.1 µM (Human PI3K alpha; [1]): 5%; inhibition at 1.1 µM (Human PI3K beta; [2]): 41% |
| – | – | CC(=O)Nc1cc(-c2cc(C(O)(c3ccc(Cl)cc3)C3CCN(C)CC3)c(-c3nnc[nH]3)s2)ccn1 (stereo not drawn) [Compound 237, N-(4-{4-[(4-chlorophenyl)(hydroxy)(1-methylpiperidin-4-yl)methyl]-5-(4H-1,2,4-triazol-3-yl)-2-thienyl}pyridin-2-yl)acetamide] | inhibition at 1.1 µM (Human PI3K alpha; concentration not given, b1387 states 1.1 μM for PI3K α and β, read-out: p110 alpha Percent Inhibition): 61%; inhibition at 1.1 µM (Human PI3K beta; concentration not given, b1387 states 1.1 μM for PI3K α and β, read-out: p110 beta Percent Inhibition): 89% |
